This passage reports T/C results from PubChem BioAssay AID322 (DTP/NCI, 2004).

The test system of this assay is CD2F1 mice, P388/ADR leukemia ip, median survival T/C. The assay can be described thus: NCI In Vivo Anticancer Drug Screen. Data for tumor model P388 Leukemia resistant to Adriamycin; NSC 123127, Developed at Scr 08 (intraperitoneal) in CD2F1 (CDF1) mice. To be noted: endpoint: median survival time, higher = longer survival. On the procedure: The antitumor activity of compounds was measured in mice bearing transplantable tumors. Survival or tumor size were measured and the results are expressed as the measurement made in the treated group (T) divided by the measurement made in the vehicle treated control group (C). The tumor model used in this assay is P388 Leukemia resistant to Adriamycin; NSC 123127, Developed at Scr 08 (intraperitoneal) in CD2F1 (CDF1) mice

“And” between values parts separate entries of the source, which are not always exact repeats. Equal entries are not always repeated. Inconclusive results and toxic doses are left out.

Turning to `O=C(Nc1ccccc1)c1c(O)[nH]c(=S)[nH]c1=O`, the T/C by setting is: (dose: 30.0 mg/kg/injection, schedule: Q01DX009 (ip), vehicle: saline with Tween-80) 173 % of control; (dose: 44.0 mg/kg/injection, schedule: Q01DX009 (ip), vehicle: saline with Tween-80) 181 % of control; (dose: 67.0 mg/kg/injection, schedule: Q01DX009 (ip), vehicle: saline with Tween-80) 160 % of control; (dose: 75.0 mg/kg/injection, schedule: Q01DX009 (ip), vehicle: saline with Tween-80) 170 % of control; (dose: 100.0 mg/kg/injection, schedule: Q01DX009 (ip), vehicle: saline with Tween-80) 173 % of control and 181 % of control; (dose: 125.0 mg/kg/injection, schedule: Q01DX009 (ip), vehicle: saline with Tween-80) 195 % of control. For the setting “dose: 150.0 mg/kg/injection, schedule: Q01DX009 (ip), vehicle: saline with Tween-80”, the T/C was 197 % of control.
As to `CCCCCCCCCCCCN1C(C)=CS/C1=C\C=C\c1scc(C)[n+]1CCCCCCCCCCCC`, the T/C by setting is: (dose: 0.75 mg/kg/injection, schedule: Q01DX005 (ip), vehicle: saline with Tween-80) 123 % of control; (dose: 1.5 mg/kg/injection, schedule: Q01DX005 (ip), vehicle: saline with Tween-80) 117 % of control; (dose: 3.0 mg/kg/injection, schedule: Q01DX005 (ip), vehicle: saline with Tween-80) 109 % of control.
With `NCCCN=c1ccc2c3c1c(O)c1c(O)ccc(=O)c1c3[nH]n2CCNCCO`, the T/C (dose: 25.0 mg/kg/injection, schedule: Q01DX001 (ip), vehicle: water) was 107 % of control.
Regarding `O=NNc1cnccn1`, the T/C by setting is: (dose: 11.0 mg/kg/injection, schedule: Q01DX009 (ip), vehicle: water) 165 % of control and 171 % of control; (dose: 17.0 mg/kg/injection, schedule: Q01DX009 (ip), vehicle: water) 201 % of control and 206 % of control; (dose: 25.0 mg/kg/injection, schedule: Q01DX009 (ip), vehicle: water) 240 % of control and 246 % of control; (dose: 37.5 mg/kg/injection, schedule: Q01DX009 (ip), vehicle: water) 277 % of control and 313 % of control; (dose: 56.0 mg/kg/injection, schedule: Q01DX009 (ip), vehicle: water) 107 % of control and 117 % of control.
For `NCCCNCCCCNC(=O)C(O)NC(=O)CCCCCCN=C(N)N` (configuration not stated), the T/C reads like this: (dose: 4.4 mg/kg/injection, schedule: Q01DX009 (ip), vehicle: other) 195 % of control; (dose: 4.4 mg/kg/injection, schedule: Q01DX009 (ip), vehicle: saline) 193 % of control; (dose: 6.7 mg/kg/injection, schedule: Q01DX009 (ip), vehicle: other) 195 % of control; (dose: 6.7 mg/kg/injection, schedule: Q01DX009 (ip), vehicle: saline) 198 % of control; (dose: 10.0 mg/kg/injection, schedule: Q01DX009 (ip), vehicle: other) 205 % of control; (dose: 10.0 mg/kg/injection, schedule: Q01DX009 (ip), vehicle: saline) 206 % of control. Moreover, the T/C was 209 % of control (dose: 15.0 mg/kg/injection, schedule: Q01DX009 (ip), vehicle: other); 212 % of control (dose: 15.0 mg/kg/injection, schedule: Q01DX009 (ip), vehicle: saline); 162 % of control (dose: 22.5 mg/kg/injection, schedule: Q01DX009 (ip), vehicle: other); 219 % of control (dose: 22.5 mg/kg/injection, schedule: Q01DX009 (ip), vehicle: saline).
In the case of `O=[N+]([O-])c1ccc([I+]c2ccccc2)cc1`, the T/C is, setting by setting: (dose: 6.25 mg/kg/injection, schedule: Q01DX005 (ip), vehicle: saline with Tween-80) 124 % of control; (dose: 12.5 mg/kg/injection, schedule: Q01DX005 (ip), vehicle: saline with Tween-80) 124 % of control; (dose: 100.0 mg/kg/injection, schedule: Q01DX005 (ip), vehicle: saline with Tween-80) 155 % of control.
Regarding `c1ccc(OCC2CO2)c(OCC2CO2)c1` (configuration not stated), the T/C by setting is: (dose: 60.0 mg/kg/injection, schedule: Q01DX005 (ip), vehicle: saline with Tween-80) 171 % of control; (dose: 120.0 mg/kg/injection, schedule: Q01DX005 (ip), vehicle: saline with Tween-80) 164 % of control and 167 % of control; (dose: 240.0 mg/kg/injection, schedule: Q01DX005 (ip), vehicle: saline with Tween-80) 252 % of control.
For the molecule `CN(Cc1cnc2nc(N)nc(N)c2n1)c1ccc(C(=O)N[C@@H](CCC(=O)O)C(=O)O)cc1`, the T/C (dose: 0.38 mg/kg/injection, schedule: Q01DX005 (ip), vehicle: sodium bicarbonate) is 122 % of control; the T/C (dose: 0.75 mg/kg/injection, schedule: Q01DX005 (ip), vehicle: sodium bicarbonate) was 155 % of control; the T/C (dose: 1.5 mg/kg/injection, schedule: Q01DX005 (ip), vehicle: sodium bicarbonate) was 179 % of control; the T/C (dose: 3.0 mg/kg/injection, schedule: Q01DX005 (ip), vehicle: sodium bicarbonate) is 191 % of control and 195 % of control.
With `COc1cc(NCc2ccc3nc(N)nc(N)c3c2C)cc(OC)c1OC`, the T/C reads like this: (dose: 18.0 mg/kg/injection, schedule: Q01DX009 (ip), vehicle: distilled water + Tween-80) 112 % of control; (dose: 27.0 mg/kg/injection, schedule: Q01DX009 (ip), vehicle: distilled water + Tween-80) 118 % of control; (dose: 40.0 mg/kg/injection, schedule: Q01DX009 (ip), vehicle: distilled water + Tween-80) 156 % of control; (dose: 60.0 mg/kg/injection, schedule: Q01DX009 (ip), vehicle: distilled water + Tween-80) 184 % of control; (dose: 110.0 mg/kg/injection, schedule: Q01DX009 (ip), vehicle: distilled water + Tween-80) 94 % of control.
As to `Nc1ncn(C2OC(CO)C(O)C2O)c(=O)n1` (configuration not stated), the T/C is, setting by setting: (dose: 30.0 mg/kg/injection, schedule: Q01DX009 (ip), vehicle: saline) 232 % of control and 246 % of control; (dose: 44.0 mg/kg/injection, schedule: Q01DX005 (ip), vehicle: saline) 183 % of control; (dose: 44.0 mg/kg/injection, schedule: Q01DX009 (ip), vehicle: saline) 248 % of control and 261 % of control; (dose: 67.0 mg/kg/injection, schedule: Q01DX005 (ip), vehicle: saline) 189 % of control; (dose: 67.0 mg/kg/injection, schedule: Q01DX009 (ip), vehicle: saline) 253 % of control and 280 % of control; (dose: 100.0 mg/kg/injection, schedule: Q01DX005 (ip), vehicle: saline) 210 % of control. For the same molecule, the T/C is, setting by setting: (dose: 100.0 mg/kg/injection, schedule: Q01DX009 (ip), vehicle: saline) 263 % of control and 270 % of control; (dose: 150.0 mg/kg/injection, schedule: Q01DX005 (ip), vehicle: saline) 206 % of control; (dose: 150.0 mg/kg/injection, schedule: Q01DX009 (ip), vehicle: saline) 277 % of control and 296 % of control; (dose: 200.0 mg/kg/injection, schedule: Q01DX005 (ip), vehicle: saline) 207 % of control.
Regarding `COc1cc(C)c(C2NC(=O)c3ccccc3N2)cc1C` (configuration not stated), the T/C runs as follows: (dose: 50.0 mg/kg/injection, schedule: Q01DX005 (ip), vehicle: Klucel (hydroxypropylcellulose) (HPC)) 109 % of control; (dose: 100.0 mg/kg/injection, schedule: Q01DX005 (ip), vehicle: Klucel (hydroxypropylcellulose) (HPC)) 116 % of control; (dose: 200.0 mg/kg/injection, schedule: Q01DX005 (ip), vehicle: Klucel (hydroxypropylcellulose) (HPC)) 113 % of control; (dose: 288.0 mg/kg/injection, schedule: Q01DX005 (ip), vehicle: Klucel (hydroxypropylcellulose) (HPC)) 158 % of control; (dose: 400.0 mg/kg/injection, schedule: Q01DX005 (ip), vehicle: Klucel (hydroxypropylcellulose) (HPC)) 124 % of control; (dose: 480.0 mg/kg/injection, schedule: Q01DX005 (ip), vehicle: Klucel (hydroxypropylcellulose) (HPC)) 153 % of control. For the same molecule, the T/C runs as follows: (dose: 800.0 mg/kg/injection, schedule: Q01DX005 (ip), vehicle: Klucel (hydroxypropylcellulose) (HPC)) 155 % of control and 206 % of control; (dose: 1333.0 mg/kg/injection, schedule: Q01DX005 (ip), vehicle: Klucel (hydroxypropylcellulose) (HPC)) 207 % of control.
Take `COc1ccc(CCN(C)CCCC(C#N)(c2ccc(OC)c(OC)c2)C(C)C)cc1OC` (configuration not stated): the T/C runs as follows: (dose: 8.0 mg/kg/injection, schedule: Q03HX006 (ip), vehicle: saline) 110 % of control; (dose: 16.0 mg/kg/injection, schedule: Q03HX006 (ip), vehicle: saline) 104 % of control; (dose: 32.0 mg/kg/injection, schedule: Q03HX006 (ip), vehicle: saline) 103 % of control.
